Reference: patent US8523975B2, “Salts of mineral nutrients stabilized with amino acids and/or ammonium salt, products and food supplements that contain them and procedures for obtaining same” (priority 2005, dated 2013)

What was measured:
[1] = reference data (Merck Index XII / manufacturer Bartek Inc.); cited from earlier work
[2] = Comparative data of solubility in water; conditions: 25° C., solubility expressed as iron

Compound | Solubility in water at 25° C. (non-stabilized salt) [1] [grams per liter] | Fe++ (ferrous) allowed per liter of water [2]
O.O.O.O=C([O-])/C=C/C(=O)[O-].[Ca+2] [Calcium Fumarate 3H2O] | 1.22 | –
O=C([O-])/C=C/C(=O)[O-].[Fe+2] [Ferrous fumarate] | 1.4 | 0.460 gr Fe++ per liter of water
